Data from ChEMBL document CHEMBL4630907 (2021).

Legend:
[1] = biological target: Bromodomain-containing protein 2 (Homo sapiens, UniProt P25440); assay: BET mutant TR-FRET assay (BRD2 BD2)
Peregrin = Peregrin (Homo sapiens, UniProt P55201); assay: BRPF1 DiscoverX BROMOscan
[2] = biological target: Histone acetyltransferase KAT2A (Homo sapiens, UniProt Q92830); assay: GCN5L2 DiscoverX BROMOscan
[3] = biological target: Transcription intermediary factor 1-alpha (Homo sapiens, UniProt O15164); assay: TRIM24(BROMO.) DiscoverX BROMOscan
[4] = biological target: Bromodomain adjacent to zinc finger domain protein 2B (Homo sapiens, UniProt Q9UIF8); assay: BAZ2B DiscoverX BROMOscan
[5] = biological target: 5-hydroxytryptamine receptor 1B (Homo sapiens, UniProt P28222); assay: (§1) Cross screening panel
[6] = biological target: Sodium channel protein type 5 subunit alpha (Homo sapiens, UniProt Q14524); assay: as §1
[7] = biological target: T1, 5-hydroxytryptamine receptor 3A (Homo sapiens, UniProt P46098); assay: as §1
T1 sequence (P46098 whole entry): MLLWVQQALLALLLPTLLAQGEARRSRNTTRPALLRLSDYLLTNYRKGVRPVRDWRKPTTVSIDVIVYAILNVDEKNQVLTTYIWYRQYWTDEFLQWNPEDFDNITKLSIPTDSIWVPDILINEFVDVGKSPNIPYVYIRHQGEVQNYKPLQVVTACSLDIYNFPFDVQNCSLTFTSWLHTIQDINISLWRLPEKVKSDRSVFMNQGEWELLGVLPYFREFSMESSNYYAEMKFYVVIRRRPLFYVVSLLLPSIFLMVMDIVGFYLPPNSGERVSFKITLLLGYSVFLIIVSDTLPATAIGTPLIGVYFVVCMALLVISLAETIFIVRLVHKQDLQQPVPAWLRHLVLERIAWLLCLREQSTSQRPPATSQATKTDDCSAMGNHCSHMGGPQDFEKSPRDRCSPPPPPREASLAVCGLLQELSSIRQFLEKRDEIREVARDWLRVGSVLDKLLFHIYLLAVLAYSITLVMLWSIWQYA

[8] = biological target: Amine oxidase [flavin-containing] B (Homo sapiens, UniProt P27338); assay: as §1
[9] = biological target: Alpha-1B adrenergic receptor (Homo sapiens, UniProt P35368); assay: as §1
[10] = biological target: cGMP-inhibited 3',5'-cyclic phosphodiesterase 3A (Homo sapiens, UniProt Q14432); assay: as §1
D(1A) dopamine receptor = D(1A) dopamine receptor (Homo sapiens, UniProt P21728); assay: as §1
Cytochrome P450 3A4 = Cytochrome P450 3A4 (Homo sapiens, UniProt P08684); assay: as §1
[11] = biological target: Sodium-dependent serotonin transporter (Homo sapiens, UniProt P31645); assay: as §1
[12] = biological target: Glutamate receptor ionotropic, NMDA 2B (Homo sapiens, UniProt Q13224); assay: as §1
Acetylcholinesterase = Acetylcholinesterase (Homo sapiens, UniProt P22303); assay: as §1
[13] = biological target: Muscarinic acetylcholine receptor M2 (Homo sapiens, UniProt P08172); assay: as §1
Histamine H1 receptor = Histamine H1 receptor (Homo sapiens, UniProt P35367); assay: as §1
[14] = biological target: Potassium voltage-gated channel subfamily A member 5 (Homo sapiens, UniProt P22460); assay: as §1
Vasopressin V1a receptor = Vasopressin V1a receptor (Homo sapiens, UniProt P37288); assay: as §1
[15] = biological target: Alpha-2C adrenergic receptor (Homo sapiens, UniProt P18825); assay: as §1
[16] = biological target: Muscarinic acetylcholine receptor M1 (Homo sapiens, UniProt P11229); assay: as §1
Cannabinoid receptor 2 = Cannabinoid receptor 2 (Homo sapiens, UniProt P34972); assay: as §1
Aurora kinase B = Aurora kinase B (Homo sapiens, UniProt Q96GD4); assay: as §1
[17] = biological target: T2, Beta-2 adrenergic receptor (Homo sapiens, UniProt P07550); assay: as §1
Target sequence in this assay (P07550 whole entry): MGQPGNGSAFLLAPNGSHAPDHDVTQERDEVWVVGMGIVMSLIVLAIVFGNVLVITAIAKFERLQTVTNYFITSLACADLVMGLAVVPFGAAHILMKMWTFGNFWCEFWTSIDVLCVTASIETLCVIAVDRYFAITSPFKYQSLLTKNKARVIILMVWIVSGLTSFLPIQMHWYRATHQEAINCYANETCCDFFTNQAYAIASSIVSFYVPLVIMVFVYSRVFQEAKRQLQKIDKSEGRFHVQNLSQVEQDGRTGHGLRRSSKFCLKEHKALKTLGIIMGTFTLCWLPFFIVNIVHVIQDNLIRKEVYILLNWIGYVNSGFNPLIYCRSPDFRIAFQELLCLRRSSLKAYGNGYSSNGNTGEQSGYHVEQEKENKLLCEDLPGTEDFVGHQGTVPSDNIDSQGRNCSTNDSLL

[18] = biological target: T3, Kappa-type opioid receptor (Homo sapiens, UniProt P41145); assay: as §1
[19] = biological target: Tyrosine-protein kinase Lck (Homo sapiens, UniProt P06239); assay: as §1
D(2) dopamine receptor = D(2) dopamine receptor (Homo sapiens, UniProt P14416); assay: as §1
[20] = biological target: Nuclear receptor subfamily 1 group I member 2 (Homo sapiens, UniProt O75469); assay: as §1
[21] = biological target: Voltage-dependent L-type calcium channel subunit alpha-1C (Homo sapiens, UniProt Q13936); assay: as §1
[22] = biological target: Prostaglandin G/H synthase 2 (Homo sapiens, UniProt P35354); assay: as §1
[23] = biological target: 5-hydroxytryptamine receptor 2C (Homo sapiens, UniProt P28335); assay: as §1
Mu-type opioid receptor = Mu-type opioid receptor (Homo sapiens, UniProt P35372); assay: as §1
[24] = biological target: Phosphatidylinositol 4,5-bisphosphate 3-kinase catalytic subunit gamma isoform (Homo sapiens, UniProt P48736); assay: as §1
Adenosine receptor A2a = Adenosine receptor A2a (Homo sapiens, UniProt P29274); assay: as §1
[25] = biological target: Acetylcholine receptor subunit alpha (Homo sapiens, UniProt P02708); assay: as §1
CREB-binding protein = CREB-binding protein (Homo sapiens, UniProt Q92793); assay: CREBBP DiscoverX BROMOscan
[26] = biological target: GABA-A receptor; anion channel; assay: GPCRScan assay: inhibition of GABAA/BZP; assay type: protein-complex assay, Rattus norvegicus; design: radioligand conc. used [nm] 0.6 – 4.0, parental cells brain tissue
[27] = biological target: Bromodomain adjacent to zinc finger domain protein 2A (Homo sapiens, UniProt Q9UIF9); assay: BAZ2A DiscoverX BROMOscan
[28] = biological target: 5-hydroxytryptamine receptor 1D (Homo sapiens) (UniProt P28221); settings: Compound concentration 10.0 uM
[29] = biological target: Sigma non-opioid intracellular receptor 1 (Homo sapiens) (UniProt Q99720); settings: Compound concentration 10.0 uM
[30] = biological target: GABA-A receptor; anion channel; assay: GPCRScan assay: inhibition of GABAA; assay type: protein-complex assay, Rattus norvegicus; design: radioligand conc. used [nm] 9.50 – 25.0, parental cells brain tissue
[31] = biological target: ATPase family AAA domain-containing protein 2 (Homo sapiens, UniProt Q6PL18); assay: ATAD2A DiscoverX BROMOscan
[32] = biological target: Sodium-dependent dopamine transporter (Homo sapiens) (UniProt Q01959); settings: Compound concentration 10.0 uM
[33] = biological target: T3, Kappa-type opioid receptor; settings: Compound concentration 10.0 uM
[34] = biological target: Bromodomain-containing protein 7 (Homo sapiens, UniProt Q9NPI1); assay: BRD7 DiscoverX BROMOscan
[35] = biological target: T2, Beta-2 adrenergic receptor; settings: Compound concentration 10.0 uM
[36] = biological target: Bromodomain-containing protein 3 (Homo sapiens, UniProt Q15059); assay: BET mutant TR-FRET assay (BRD3 BD2)
[37] = biological target: Histamine H4 receptor (Homo sapiens) (UniProt Q9H3N8); settings: Compound concentration 10.0 uM

T3 sequence (P41145 whole entry): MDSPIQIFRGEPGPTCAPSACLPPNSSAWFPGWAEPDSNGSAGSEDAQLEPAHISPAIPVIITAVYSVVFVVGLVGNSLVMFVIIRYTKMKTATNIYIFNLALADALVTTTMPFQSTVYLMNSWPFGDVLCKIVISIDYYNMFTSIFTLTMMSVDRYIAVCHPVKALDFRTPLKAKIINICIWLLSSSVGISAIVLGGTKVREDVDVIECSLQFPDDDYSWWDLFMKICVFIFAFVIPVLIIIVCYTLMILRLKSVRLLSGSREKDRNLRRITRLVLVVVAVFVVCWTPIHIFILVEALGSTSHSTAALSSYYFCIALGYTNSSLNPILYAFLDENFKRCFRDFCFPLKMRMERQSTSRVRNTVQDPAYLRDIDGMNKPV
D(2) dopamine receptor, sequence (P14416 whole entry): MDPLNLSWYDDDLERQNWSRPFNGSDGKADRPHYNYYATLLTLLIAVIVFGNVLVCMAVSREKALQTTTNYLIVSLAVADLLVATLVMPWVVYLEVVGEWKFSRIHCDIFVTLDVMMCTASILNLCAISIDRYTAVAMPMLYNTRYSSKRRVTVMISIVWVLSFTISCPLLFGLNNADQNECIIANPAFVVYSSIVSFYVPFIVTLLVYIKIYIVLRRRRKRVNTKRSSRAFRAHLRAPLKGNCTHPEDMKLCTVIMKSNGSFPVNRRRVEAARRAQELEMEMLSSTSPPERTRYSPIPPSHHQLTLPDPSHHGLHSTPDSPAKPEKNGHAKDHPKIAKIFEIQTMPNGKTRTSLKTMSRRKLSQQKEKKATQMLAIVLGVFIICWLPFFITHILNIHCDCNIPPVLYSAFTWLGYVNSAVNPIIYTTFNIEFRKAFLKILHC
5-hydroxytryptamine receptor 1B, sequence (P28222 whole entry): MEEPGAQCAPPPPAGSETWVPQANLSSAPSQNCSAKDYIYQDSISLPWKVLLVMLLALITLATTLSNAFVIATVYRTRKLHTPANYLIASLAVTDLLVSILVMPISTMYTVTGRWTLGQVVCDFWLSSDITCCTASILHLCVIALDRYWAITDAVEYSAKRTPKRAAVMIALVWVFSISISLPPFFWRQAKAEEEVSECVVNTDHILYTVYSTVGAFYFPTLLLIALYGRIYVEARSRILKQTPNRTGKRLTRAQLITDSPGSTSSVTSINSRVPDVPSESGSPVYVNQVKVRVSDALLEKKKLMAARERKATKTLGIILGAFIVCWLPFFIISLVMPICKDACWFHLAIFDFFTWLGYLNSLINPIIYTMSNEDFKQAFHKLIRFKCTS
Muscarinic acetylcholine receptor M2, sequence (P08172 whole entry): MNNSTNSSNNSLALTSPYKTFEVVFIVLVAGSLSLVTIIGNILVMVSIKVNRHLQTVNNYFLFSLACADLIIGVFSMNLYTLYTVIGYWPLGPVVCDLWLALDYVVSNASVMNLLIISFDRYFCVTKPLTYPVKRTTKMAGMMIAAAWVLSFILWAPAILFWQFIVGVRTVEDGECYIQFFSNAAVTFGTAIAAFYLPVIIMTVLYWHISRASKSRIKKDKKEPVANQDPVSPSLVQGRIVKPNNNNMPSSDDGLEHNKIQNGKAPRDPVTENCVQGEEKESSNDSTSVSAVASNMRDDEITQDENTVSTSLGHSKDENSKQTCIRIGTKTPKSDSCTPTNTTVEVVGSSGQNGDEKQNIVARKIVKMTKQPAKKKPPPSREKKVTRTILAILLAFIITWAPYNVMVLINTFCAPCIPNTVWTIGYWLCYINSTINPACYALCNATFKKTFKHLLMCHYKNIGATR
5-hydroxytryptamine receptor 2C, sequence (P28335 whole entry): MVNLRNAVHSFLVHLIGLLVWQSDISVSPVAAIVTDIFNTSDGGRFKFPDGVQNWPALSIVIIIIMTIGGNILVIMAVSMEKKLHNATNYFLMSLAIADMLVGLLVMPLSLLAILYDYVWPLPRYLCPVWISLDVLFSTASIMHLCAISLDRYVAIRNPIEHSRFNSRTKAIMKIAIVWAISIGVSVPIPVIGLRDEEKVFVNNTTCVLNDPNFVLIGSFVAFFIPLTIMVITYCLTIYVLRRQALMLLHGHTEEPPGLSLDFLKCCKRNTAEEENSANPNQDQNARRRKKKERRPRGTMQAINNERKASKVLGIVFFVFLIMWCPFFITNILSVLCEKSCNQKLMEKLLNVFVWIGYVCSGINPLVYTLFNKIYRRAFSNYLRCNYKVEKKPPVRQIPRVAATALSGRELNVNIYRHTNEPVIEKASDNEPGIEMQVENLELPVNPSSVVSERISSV
Muscarinic acetylcholine receptor M1, sequence (P11229 whole entry): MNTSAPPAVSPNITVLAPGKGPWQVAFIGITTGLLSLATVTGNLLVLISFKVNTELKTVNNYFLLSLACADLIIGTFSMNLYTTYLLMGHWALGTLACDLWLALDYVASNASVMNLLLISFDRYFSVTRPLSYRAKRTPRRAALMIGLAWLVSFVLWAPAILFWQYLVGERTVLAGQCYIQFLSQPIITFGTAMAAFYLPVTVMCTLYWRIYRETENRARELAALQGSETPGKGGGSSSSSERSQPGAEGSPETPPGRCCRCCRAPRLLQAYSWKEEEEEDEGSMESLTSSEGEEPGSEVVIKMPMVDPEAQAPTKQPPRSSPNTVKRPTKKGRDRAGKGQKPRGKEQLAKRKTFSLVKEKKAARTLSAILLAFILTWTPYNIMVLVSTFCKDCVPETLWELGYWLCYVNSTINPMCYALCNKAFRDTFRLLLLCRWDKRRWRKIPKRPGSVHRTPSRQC
Acetylcholine receptor subunit alpha, sequence (P02708 whole entry): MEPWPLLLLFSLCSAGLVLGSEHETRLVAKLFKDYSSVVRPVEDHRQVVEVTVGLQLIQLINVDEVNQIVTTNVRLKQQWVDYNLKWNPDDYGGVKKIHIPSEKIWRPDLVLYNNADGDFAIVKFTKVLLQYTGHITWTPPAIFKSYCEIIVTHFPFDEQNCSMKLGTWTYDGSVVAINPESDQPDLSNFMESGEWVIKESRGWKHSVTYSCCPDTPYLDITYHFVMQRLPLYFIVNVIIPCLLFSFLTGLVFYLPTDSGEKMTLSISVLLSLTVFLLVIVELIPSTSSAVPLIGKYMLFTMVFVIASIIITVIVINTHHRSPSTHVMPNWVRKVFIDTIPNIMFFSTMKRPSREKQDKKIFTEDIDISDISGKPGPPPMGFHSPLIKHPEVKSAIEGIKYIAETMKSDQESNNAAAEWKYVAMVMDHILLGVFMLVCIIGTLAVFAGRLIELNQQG
Histone acetyltransferase KAT2A, sequence (Q92830 whole entry): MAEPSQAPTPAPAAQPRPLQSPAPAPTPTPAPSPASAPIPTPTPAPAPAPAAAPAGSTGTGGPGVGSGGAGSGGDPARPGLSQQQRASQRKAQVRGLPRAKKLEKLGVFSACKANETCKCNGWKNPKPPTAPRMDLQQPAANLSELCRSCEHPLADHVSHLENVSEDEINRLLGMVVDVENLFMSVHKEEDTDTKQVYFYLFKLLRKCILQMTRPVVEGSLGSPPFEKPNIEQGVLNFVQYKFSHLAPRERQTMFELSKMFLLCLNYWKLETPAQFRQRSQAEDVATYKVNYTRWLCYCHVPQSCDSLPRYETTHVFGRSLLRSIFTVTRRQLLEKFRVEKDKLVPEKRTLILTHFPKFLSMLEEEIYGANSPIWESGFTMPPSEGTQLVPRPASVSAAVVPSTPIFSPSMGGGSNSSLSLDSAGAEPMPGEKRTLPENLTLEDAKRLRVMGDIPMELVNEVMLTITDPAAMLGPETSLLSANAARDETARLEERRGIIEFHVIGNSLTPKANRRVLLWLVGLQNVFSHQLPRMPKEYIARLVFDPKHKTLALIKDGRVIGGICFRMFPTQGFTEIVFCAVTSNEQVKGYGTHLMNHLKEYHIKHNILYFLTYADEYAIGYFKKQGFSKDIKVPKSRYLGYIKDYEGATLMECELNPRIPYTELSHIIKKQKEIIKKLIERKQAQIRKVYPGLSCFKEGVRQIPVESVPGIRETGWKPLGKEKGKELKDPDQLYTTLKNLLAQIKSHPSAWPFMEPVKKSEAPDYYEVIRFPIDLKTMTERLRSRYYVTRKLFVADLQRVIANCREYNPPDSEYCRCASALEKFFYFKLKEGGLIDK
Vasopressin V1a receptor, sequence (P37288 whole entry): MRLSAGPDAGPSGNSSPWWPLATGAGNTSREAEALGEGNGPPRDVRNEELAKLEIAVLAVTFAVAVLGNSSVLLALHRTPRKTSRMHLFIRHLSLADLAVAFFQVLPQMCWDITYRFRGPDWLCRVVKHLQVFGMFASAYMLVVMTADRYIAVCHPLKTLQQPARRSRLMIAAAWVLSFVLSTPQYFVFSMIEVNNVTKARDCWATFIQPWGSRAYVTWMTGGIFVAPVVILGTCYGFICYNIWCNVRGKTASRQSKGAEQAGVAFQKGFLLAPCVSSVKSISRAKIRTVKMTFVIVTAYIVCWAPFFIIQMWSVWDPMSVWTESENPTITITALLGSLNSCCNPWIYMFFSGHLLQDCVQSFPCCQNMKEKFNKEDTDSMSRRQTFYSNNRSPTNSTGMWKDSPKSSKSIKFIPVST
Sigma non-opioid intracellular receptor 1 (Homo sapiens), sequence (Q99720 whole entry): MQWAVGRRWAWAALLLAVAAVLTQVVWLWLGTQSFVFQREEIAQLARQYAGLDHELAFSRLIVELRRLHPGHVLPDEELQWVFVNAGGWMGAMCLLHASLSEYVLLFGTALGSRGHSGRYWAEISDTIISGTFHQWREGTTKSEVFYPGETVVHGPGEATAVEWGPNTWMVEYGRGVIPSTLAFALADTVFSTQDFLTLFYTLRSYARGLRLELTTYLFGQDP

COCc1nc2cnc3cc(-c4c(C)noc4C)c(OC[C@H]4CCNC4)cc3c2n1[C@H](C)c1ccccc1 [GSK778]
pIC50 [1]: 5.5
Kd (Peregrin): 15 µM
Kd [2]: 30 µM
Kd [3]: 30 µM
Kd [4]: 30 µM
EC50 [5]: > 100 µM
IC50 [5]: > 100 µM
IC50 [6]: 50.1 µM
EC50 [7]: > 50.1 µM
IC50 [7]: > 50.1 µM
IC50 [8]: 79.4 µM
IC50 [9]: > 25.1 µM
IC50 [10]: > 100 µM
IC50 (D(1A) dopamine receptor): > 100 µM
IC50 (Cytochrome P450 3A4): 6.31 µM
IC50 [11]: 39.8 µM
IC50 [12]: > 50.1 µM
IC50 (Acetylcholinesterase): 63.1 µM
EC50 [13]: > 50.1 µM
IC50 [13]: 10 µM
IC50 (Histamine H1 receptor): > 25.1 µM
IC50 [14]: > 50.1 µM
IC50 (Vasopressin V1a receptor): > 50.1 µM
EC50 [15]: > 100 µM
EC50 [16]: > 50.1 µM
IC50 [16]: > 50.1 µM
EC50 (Cannabinoid receptor 2): > 100 µM
IC50 (Aurora kinase B): > 31.6 µM
EC50 [17]: > 100 µM
IC50 [17]: > 100 µM
EC50 [18]: > 100 µM
IC50 [18]: > 100 µM
IC50 [19]: > 31.6 µM
EC50 (D(2) dopamine receptor): > 100 µM
IC50 (D(2) dopamine receptor): 3.16 µM
EC50 [20]: > 50.1 µM
IC50 [21]: > 100 µM
IC50 [22]: > 100 µM
EC50 [23]: > 25.1 µM
IC50 [23]: > 25.1 µM
EC50 (Mu-type opioid receptor): > 100 µM
IC50 [24]: > 31.6 µM
EC50 (Adenosine receptor A2a): > 100 µM
EC50 [25]: > 50.1 µM
IC50 [25]: 1 µM
Kd (CREB-binding protein): 3.8 µM
Ki [26]: 1.97 µM
pKi [26]: 5.75
Kd [27]: 30 µM
inhibition [28]: 14.8%
inhibition [29]: 38.5%
Ki [30]: 1.6 µM
pKi [30]: 5.81
Kd [31]: 30 µM
inhibition [32]: 27.9%
inhibition [33]: 15.5%
Kd [34]: 30 µM
inhibition [35]: 18.4%
pIC50 [36]: 6
inhibition [37]: 29.3%
